In patent US4637996A, “Antiulcer composition containing a dipeptide compound” (Nippon Zoki Pharmaceutical Co., Ltd., priority 1984, dated 1987):

Test system: histamine-induced ulcer formation
Assay: Inhibition of histamine-induced ulcer formation
Assay type: in vivo, Wister strain rats
Conditions: 20 mg/kg i.v., rats, histamine dihydrochloride 300 mg/kg i.p., 4 hours; for Ulcer coefficient (mean ± S.E.): sum of surface area of ulcer lesion
Protocol: Immediately thereafter, 300 mg/kg of histamine dihydrochloride was administered intraperitoneally (i.p.) F. Burcher et al; [Beith. Path. Anat., 81, 391 (1928)]. Four hours later, each animal was bled to death by decapitation, and the stomach was removed. 7.5 ml of physiological saline was infused into the removed stomach and partially fixed in 10% formalin for 10 minutes. Then, the stomach was incised along the greater curvature. The sum of the surface area of the ulcer lesion on the glandular part of the stomach was designated as the ulcer coefficient.

| Compound | Inhibition rate (%) | Ulcer coefficient (mean ± S.E.) |
| --- | --- | --- |
| CN/C(=N/CCSCc1nc[nH]c1C)NC#N [Cimetidine] | 57.6 | 19.1 ± 10.6 |
| cyclic histidyllysine | 66.8 | 14.9 ± 6.0 |
